Data taken from ChEMBL document CHEMBL5356971, “Optimization of the Antibacterial Spectrum and the Developability Profile of the Novel-Class Natural Product Corramycin” (J Med Chem, 2023).
Converted amounts (≈) assume the structure as drawn. The source made the active and inactive calls. No cut-off for these calls is given here.

What was measured:
Escherichia coli [1] = experiment: Antibacterial activity against Escherichia coli UT189 infected in Swiss albino mouse model of urinary tract infection assessed as log reduction in bacteremia in bladder at 10 mg/kg, iv pre-infected with bacteria for 24 hrs followed by compound treatment for every 24 hrs for 3 days; type: functional; settings: time 3 day
Escherichia coli [2] = experiment: Antibacterial activity against Escherichia coli UT189 infected in Swiss albino mouse model of urinary tract infection assessed as log reduction in bacteremia in kidney at 10 mg/kg, iv pre-infected with bacteria for 24 hrs followed by compound treatment for every 24 hrs for 3 days; type: functional; settings: time 3 day
Escherichia coli [3] = experiment: Antibacterial activity against multidrug-resistant Escherichia coli MG1655 harboring tolC mutant assessed as bacterial growth inhibition incubated for 20 to 22 hrs by CLSI based analysis; type: functional; settings: time 20-22 hrs
Proteus mirabilis = experiment: Antibacterial activity against multidrug-resistant Proteus mirabilis ATCC 7002 assessed as bacterial growth inhibition incubated for 20 to 22 hrs by CLSI based analysis; type: functional; settings: time 20-22 hrs
[4] = Drug excretion in urine of Swiss mouse at 3 mg/kg, iv measured upto 24 hrs by LC-MS/MS analysis; type: ADME, organism-based; settings: read-out: Drug excretion
Acinetobacter baumannii [5] = experiment: Antibacterial activity against multidrug-resistant Acinetobacter baumannii R831 assessed as bacterial growth inhibition incubated for 20 to 22 hrs by CLSI based analysis; type: functional; settings: time 20-22 hrs
[6] = biological target: Voltage-gated inwardly rectifying potassium channel KCNH2 (Homo sapiens, UniProt Q12809); experiment: Inhibition of hERG; type: toxicity; settings: human
Acinetobacter baumannii [7] = experiment: Antibacterial activity against wild type Acinetobacter baumannii ATCC 19606 assessed as reduction in microbial growth incubated for 20 to 22 hrs by CLSI based analysis; type: functional; settings: time 20-22 hrs
[8] = AUClast in Swiss mouse Kidney at 3 mg/kg, iv measured upto 24 hrs by LC-MS/MS analysis; type: ADME, organism-based; parameters: dose 3 mg/kg, time < 24 hrs, route iv
[9] = Observed clearance Swiss mouse at 3 mg/kg, iv measured upto 24 hrs by LC-MS/MS analysis; type: ADME, organism-based; settings: in vivo
Klebsiella pneumoniae [10] = experiment: Antibacterial activity against Klebsiella pneumoniae ATCC 13883 infected in Swiss albino mouse thigh infection model at 10 mg/kg, iv measured after 1 hr; type: functional, organism-based
Klebsiella pneumoniae [11] = experiment: Antibacterial activity against multidrug-resistant Klebsiella pneumoniae BAA2473 assessed as bacterial growth inhibition incubated for 20 to 22 hrs by CLSI based analysis; type: functional; settings: time 20-22 hrs
Pseudomonas aeruginosa = experiment: Antibacterial activity against multidrug-resistant Pseudomonas aeruginosa PAO1 assessed as bacterial growth inhibition incubated for 20 to 22 hrs by CLSI based analysis; type: functional; settings: time 20-22 hrs
Escherichia coli [12] = experiment: Antibacterial activity against Escherichia coli ATCC 35218 infected in Swiss albino mouse model of Septicaemia infection assessed as log reduction in Septicaemia in blood at 1 mg/kg , iv preincubated for 4 hrs followed by bacterial infection and measured after 4 hrs post infection; type: functional; settings: time 8 hrs
Klebsiella pneumoniae [13] = experiment: Antibacterial activity against wild type Klebsiella pneumoniae ATCC 13883 assessed as reduction in microbial growth incubated for 20 to 22 hrs by CLSI based analysis; type: functional; settings: time 20-22 hrs
[14] = AUClast in Swiss mouse plasma at 3 mg/kg, iv measured upto 24 hrs by LC-MS/MS analysis; type: ADME, organism-based; parameters: time < 24 hrs, dose 3 mg/kg, route iv
Escherichia coli [15] = experiment: Antibacterial activity against Escherichia coli UT189 infected in Swiss albino mouse model of urinary tract infection assessed as log reduction in bacteremia in urine at 10 mg/kg, iv pre-infected with bacteria for 24 hrs followed by compound treatment for every 24 hrs for 3 days; type: functional; settings: time 3 day
Escherichia coli [16] = experiment: Antibacterial activity against wild type Escherichia coli ATCC 35218 assessed as reduction in microbial growth incubated for 20 to 22 hrs by CLSI based analysis; type: functional; settings: time 20-22 hrs
[17] = Half life in Swiss mouse at 3 mg/kg, iv measured upto 24 hrs by LC-MS/MS analysis; type: ADME, organism-based; settings: in vivo
[18] = Protein binding in mouse plasma assessed as free fraction; type: ADME, cell-free
Klebsiella pneumoniae [19] = experiment: Antibacterial activity against multidrug-resistant Klebsiella pneumoniae NR-48977 assessed as bacterial growth inhibition incubated for 20 to 22 hrs by CLSI based analysis; type: functional; settings: time 20-22 hrs
Acinetobacter baumannii [20] = experiment: Antibacterial activity against multidrug-resistant Acinetobacter baumannii R835 assessed as bacterial growth inhibition incubated for 20 to 22 hrs by CLSI based analysis; type: functional; settings: time 20-22 hrs
[21] = Cmax in Swiss mouse lung at 3 mg/kg, iv measured upto 24 hrs by LC-MS/MS analysis; type: ADME, organism-based; parameters: time < 24 hrs, dose 3 mg/kg, route iv
Escherichia coli [22] = experiment: Antibacterial activity against multidrug-resistant Escherichia coli IR45 assessed as bacterial growth inhibition incubated for 20 to 22 hrs by CLSI based analysis; type: functional; settings: time 20-22 hrs
[23] = Toxicity in Swiss albino mouse at 10 mg/kg, iv measured after 1 hr; type: organism-based; settings: in vivo
Klebsiella pneumoniae [24] = experiment: Antibacterial activity against multidrug-resistant Klebsiella pneumoniae NCTC 13443 assessed as bacterial growth inhibition incubated for 20 to 22 hrs by CLSI based analysis; type: functional; settings: time 20-22 hrs
Staphylococcus aureus = experiment: Antibacterial activity against multidrug-resistant Staphylococcus aureus ATCC 33592 assessed as bacterial growth inhibition incubated for 20 to 22 hrs by CLSI based analysis; type: functional; settings: time 20-22 hrs
Escherichia coli [25] = experiment: Antibacterial activity against Escherichia coli ATCC 25922 infected in Swiss albino mouse thigh infection model at 10 mg/kg, iv measured after 1 hr; type: functional, organism-based
Klebsiella pneumoniae [26] = experiment: Antibacterial activity against multidrug-resistant Klebsiella pneumoniae BAA2146 assessed as bacterial growth inhibition incubated for 20 to 22 hrs by CLSI based analysis; type: functional; settings: time 20-22 hrs
Citrobacter freundii = experiment: Antibacterial activity against multidrug-resistant Citrobacter freundii ATCC 8090 assessed as bacterial growth inhibition incubated for 20 to 22 hrs by CLSI based analysis; type: functional; settings: time 20-22 hrs
[27] = AUClast in Swiss mouse Lung at 3 mg/kg, iv measured upto 24 hrs by LC-MS/MS analysis; type: ADME, organism-based; parameters: time < 24 hrs, dose 3 mg/kg, route iv
Providencia stuartii = experiment: Antibacterial activity against multidrug-resistant Providencia stuartii ATCC 49809 assessed as bacterial growth inhibition incubated for 20 to 22 hrs by CLSI based analysis; type: functional; settings: time 20-22 hrs
[28] = Metabolic stability in mouse kidney assessed as parent compound remaining measured after 4 hrs by UPLC-MS analysis; type: ADME, tissue-based; settings: read-out: Stability
[29] = Cytotoxicity against human HEK cells assessed as inhibition of cell growth at 30 uM incubated for 40 hrs by celltiterglo assay; type: toxicity, cell-based
Klebsiella pneumoniae [30] = experiment: Antibacterial activity against multidrug-resistant Klebsiella pneumoniae R1525 assessed as bacterial growth inhibition incubated for 20 to 22 hrs by CLSI based analysis; type: functional; settings: time 20-22 hrs
[31] = Metabolic stability in mouse lung assessed as parent compound remaining measured after 1 hrs by UPLC-MS analysis; type: ADME, tissue-based; settings: mouse lung, read-out: Stability
[32] = Aqueous solubility of compound at pH 4.5; type: physicochemical; settings: buffer
[33] = Aqueous solubility of compound at pH 5.5; type: physicochemical; settings: buffer
[34] = Cmax in Swiss mouse kidney at 3 mg/kg, iv measured upto 24 hrs by LC-MS/MS analysis; type: ADME, organism-based; parameters: dose 3 mg/kg, time < 24 hrs, route iv
Klebsiella pneumoniae [35] = experiment: Antibacterial activity against Klebsiella pneumoniae ATCC 13883 infected in Swiss albino mouse model of neutropenic lung infection at 10 mg/kg, iv pretreated for 1 hr followed by bacterial infection and measured after 5 hr post infection; type: functional, organism-based; settings: time 6.0 hrs
THP-1 = experiment: Cytotoxicity against human THP-1 cells assessed as inhibition of cell growth at 30 uM incubated for 40 hrs by celltiterglo assay; type: functional, cell-based
Klebsiella pneumoniae [36] = experiment: Antibacterial activity against […] assessed as bacterial growth inhibition incubated for 20 to 22 hrs by CLSI based analysis; type: functional; settings: time 20-22 hrs

Chain of Voltage-gated inwardly rectifying potassium channel KCNH2 (Q12809 whole entry): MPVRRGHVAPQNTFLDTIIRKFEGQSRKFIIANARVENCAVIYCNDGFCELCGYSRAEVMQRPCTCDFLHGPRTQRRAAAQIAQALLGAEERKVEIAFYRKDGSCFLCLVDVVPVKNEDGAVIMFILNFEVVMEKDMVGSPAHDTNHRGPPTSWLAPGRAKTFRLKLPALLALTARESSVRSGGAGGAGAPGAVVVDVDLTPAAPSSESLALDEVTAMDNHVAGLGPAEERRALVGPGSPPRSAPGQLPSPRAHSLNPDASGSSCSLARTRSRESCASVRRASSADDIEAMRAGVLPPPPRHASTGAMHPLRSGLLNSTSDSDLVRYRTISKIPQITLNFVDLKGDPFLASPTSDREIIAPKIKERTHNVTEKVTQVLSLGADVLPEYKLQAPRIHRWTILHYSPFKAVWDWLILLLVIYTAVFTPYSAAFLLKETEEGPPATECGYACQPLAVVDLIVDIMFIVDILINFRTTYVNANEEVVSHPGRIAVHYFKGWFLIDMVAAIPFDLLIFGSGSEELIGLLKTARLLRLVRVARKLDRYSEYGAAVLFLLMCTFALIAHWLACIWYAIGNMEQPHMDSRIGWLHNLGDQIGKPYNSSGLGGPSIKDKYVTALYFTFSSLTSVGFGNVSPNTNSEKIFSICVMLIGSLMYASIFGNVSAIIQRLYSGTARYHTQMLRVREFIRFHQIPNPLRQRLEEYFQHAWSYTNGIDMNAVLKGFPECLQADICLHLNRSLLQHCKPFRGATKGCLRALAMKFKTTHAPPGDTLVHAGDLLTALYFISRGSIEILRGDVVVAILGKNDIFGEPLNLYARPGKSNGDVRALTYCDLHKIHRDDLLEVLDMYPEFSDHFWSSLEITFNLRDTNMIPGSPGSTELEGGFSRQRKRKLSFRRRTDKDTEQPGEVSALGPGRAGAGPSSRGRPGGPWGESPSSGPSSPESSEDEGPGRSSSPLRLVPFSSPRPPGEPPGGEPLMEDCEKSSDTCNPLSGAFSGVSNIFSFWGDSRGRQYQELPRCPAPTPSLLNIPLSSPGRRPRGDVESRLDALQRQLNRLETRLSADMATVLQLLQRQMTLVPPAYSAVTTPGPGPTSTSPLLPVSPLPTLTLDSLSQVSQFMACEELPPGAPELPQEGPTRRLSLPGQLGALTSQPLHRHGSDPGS

## CO[C@@H](CNC(=O)[C@H](NC(=O)[C@H](O)[C@H](C)O)[C@H](O)c1cncn1C)[C@H](O)[C@H](O)C(=O)N(C)[C@@H](Cc1ccccc1)C(=O)NCC(=O)N[C@H](C(=O)N[C@@H](CO)C(=O)N[C@H](C(=O)N[C@H](C(=O)N[C@@H](CC(=O)O)C(=O)N1CCC[C@H]1C(=O)NCc1cc(=O)c(O)cn1O)C(C)(C)C)C(C)(C)O)C(C)(C)O
Escherichia coli [1]
  log(activity): 3.1
Escherichia coli [2]
  log(activity): 3.6
Escherichia coli [3]
  MIC: 0.01 µg/mL (≈ 0.00691 µM)
Proteus mirabilis
  MIC: 0.12 µg/mL (≈ 0.0829 µM)
[4]
  dose excreted at 24 h: 65%
Acinetobacter baumannii [5]
  MIC: 2 µg/mL (≈ 1.38 µM)
[6]
  inhibition (INH): Not Active
Acinetobacter baumannii [7]
  MIC: 0.03 µg/mL
[8]
  AUC(0-t) at 24 h: 7150 ng·h/mL
[9]
  clearance: 13.5 mL/min/kg
Klebsiella pneumoniae [10]
  Activity: Active
Klebsiella pneumoniae [11]
  MIC: 4 µg/mL (≈ 2.76 µM)
Pseudomonas aeruginosa
  MIC: > 32 µg/mL
Escherichia coli [12]
  Activity: -3.8 log10CFU
Klebsiella pneumoniae [13]
  MIC: 0.03 µg/mL
[14]
  AUC(0-t) at 24 h: 2860 ng·h/mL
Escherichia coli [15]
  log(activity): 4.7
Escherichia coli [16]
  MIC: 0.01 µg/mL
[17]
  half-life: 15 min
[18]
  fraction unbound: 0.51
Klebsiella pneumoniae [19]
  MIC: 4 µg/mL (≈ 2.76 µM)
Acinetobacter baumannii [20]
  MIC: 0.06 µg/mL (≈ 0.0415 µM)
[21]
  Cmax: 2420 ng/mL
Escherichia coli [22]
  MIC: 2 µg/mL (≈ 1.38 µM)
[23]
  Activity: Non-Toxic
Klebsiella pneumoniae [24]
  MIC: 2 µg/mL (≈ 1.38 µM)
Staphylococcus aureus
  MIC: 4 µg/mL (≈ 2.76 µM)
Escherichia coli [25]
  Activity: Active
Klebsiella pneumoniae [26]
  MIC: 0.12 µg/mL (≈ 0.0829 µM)
Citrobacter freundii
  MIC: 2 µg/mL (≈ 1.38 µM)
[27]
  AUC(0-t) at 24 h: 1010 ng·h/mL
Providencia stuartii
  MIC: 0.06 µg/mL (≈ 0.0415 µM)
[28]
  remaining at 4 h: 91%
[29]
  Activity: Non-Toxic
Klebsiella pneumoniae [30]
  MIC: 0.06 µg/mL (≈ 0.0415 µM)
[31]
  remaining at 1 h: 100%
[32]
  solubility: 8100 µg/mL (≈ 5600 µM)
[33]
  solubility: 9100 µg/mL (≈ 6290 µM)
[34]
  Cmax: 14200 ng/mL
Klebsiella pneumoniae [35]
  Activity: Active
THP-1
  Activity: inactive
Klebsiella pneumoniae [36]
  MIC: 0.06 µg/mL (≈ 0.0415 µM)
